In patent publication EP4360456A1, “PHYTOSANITARY FORMULATION” (Universidad de Almeria, priority 2021, dated 2022):
Read-outs that look alike come from different tables or passages of the source.

Tested on: fungus F. oxysporum
Experiment: microbe, parasite or virus in culture
Type: cell-based
Conditions: for inhibition at 5000 µg/mL / inhibition at 2000 µg/mL / inhibition at 7500 µg/mL / inhibition at 10000 µg/mL: Fusarium oxysporum
Protocol: The % of inhibition is calculated with respect to the control based on the areas of growth of the fungus according to the following equation: % of inhibition with respect to FOM = 100−((AP)/(AC)*100) [formula] wherein: • AP: area of growth of the fungus in the target dish. • AC: Area of growth of the fungus in the control dish.

[1] = Concentration 2 g/L, Table 4 concentration screening, read-out: Percentages of inhibition
[2] = Concentration 5 g/L, Table 4 concentration screening, read-out: Percentages of inhibition
[3] = Concentration 7.5 g/L, Table 4 concentration screening, read-out: Percentages of inhibition
[4] = Concentration 10 g/L, Table 4 concentration screening, read-out: Percentages of inhibition
[5] = solution at 5 g/L, Table 3, read-out: % of inhibition

`O=C[O-].[Na+]` [Sodium formate] was tested. Which Percentages of inhibition (Concentration 2 g/L, Table 4 concentration screening) did it give?
The Percentages of inhibition was 5.66 ± 0.41.

And the Percentages of inhibition (Concentration 5 g/L, Table 4 concentration screening)?
The Percentages of inhibition was 12.33 ± 0.98.

And the Percentages of inhibition (Concentration 7.5 g/L, Table 4 concentration screening)?
The Percentages of inhibition was 12.54 ± 1.54.

What about the Percentages of inhibition (Concentration 10 g/L, Table 4 concentration screening) of the same molecule?
Its Percentages of inhibition is 12.14 ±0.52.

And the “% of inhibition” value (solution at 5 g/L, Table 3)?
The value was 13.38 ± 0.95%.

With `CCO` [Ethanol] as the molecule, how does the inhibition at 5000 µg/mL (read-out: % of inhibition) read?
The inhibition at 5000 µg/mL was 3.07 ± 0.45%.

What does the source list for `N[C@@H](Cc1ccccc1)C(=O)O` [Phenylalanine, L-Phenylalanine]?
inhibition at 2000 µg/mL [1]: 17 ± 2.24%; inhibition at 5000 µg/mL [2]: 19.5 ± 1.85%; inhibition at 7500 µg/mL [3]: 19.2 ± 1.65%; inhibition at 10000 µg/mL [4]: 21.7 ± 1.74%; inhibition at 5000 µg/mL [5]: 16.1 ± 1.05%

For `C[C@H](N)C(=O)O` [Alanine, L-Alanine], which inhibition at 2000 µg/mL [1] is on record?
Its inhibition at 2000 µg/mL is 9.24 ± 0.85%.

And the inhibition at 5000 µg/mL [2]?
The inhibition at 5000 µg/mL was 9.48 ± 1.06%.

What about the inhibition at 7500 µg/mL [3] of the same molecule?
The inhibition at 7500 µg/mL was 13.3 ± 1.01%.

And the inhibition at 10000 µg/mL [4]?
Its inhibition at 10000 µg/mL is 14.4 ± 0.87%.

What about the inhibition at 5000 µg/mL [5] of the same molecule?
Its inhibition at 5000 µg/mL is 9.23 ± 0.71%.

How did the “% of inhibition” value (solution at 5 g/L, Table 3) turn out when `N.O=CO` [Ammonium formate] was run?
The value was 1.54 ± 0.15%.

`OCC(O)CO` [Glycerol] was tested. Which inhibition at 5000 µg/mL [5] did it give?
Its inhibition at 5000 µg/mL is 1.85 ± 0.1%.

With `CC(=O)O` [Sodium acetate, Anhydrous sodium acetate] as the molecule, how does the inhibition at 5000 µg/mL (read-out: % of inhibition) read?
Its inhibition at 5000 µg/mL is 1.54 ± 0.05%.
